# Measured values from the supplement of paper PMC4862054.
# Columns and labels:
# [1] = test system: HCC1143; settings: 72 h
# Method in brief: (§1)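 To measure viability, fluorescence at 560/590 nm was read after 2.5 µl CellTiter-Blue had been added for 2 h at 37 °C. Cells from breast cancer lines had been seeded in 20 µl suspension onto 384-well plates pre-loaded with compound dissolved in 5 µl medium and kept for 72 h. EC50 comes from a fitted percent-inhibition dose-response curve censored at the highest concentration, after per-plate normalisation to vehicle and a positive kill control, Z'-factor checks, and removal of rows with zero drug sensitivity score.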
# [2] = test system: MDA-MB-231; settings: 72 h
# Method in brief: as §1
# [3] = test system: Hs578T; settings: 72 h
# Method in brief: as §1
# [4] = test system: HCC1937; settings: 72 h
# Method in brief: as §1
# [5] = test system: MDA-MB-436; settings: 72 h
# Method in brief: as §1
# [6] = test system: MDA-MB-468; settings: 72 h
# Method in brief: as §1
# [7] = test system: HCC1599; settings: 72 h
# Method in brief: as §1
# [8] = test system: BT-549; settings: 72 h
# Method in brief: as §1
# [9] = test system: CAL-120; settings: 72 h
# Method in brief: as §1
# [10] = test system: SK-BR-3; settings: 72 h
# Method in brief: as §1
# [11] = test system: MFM-223; settings: 72 h
# Method in brief: as §1
# [12] = test system: MDA-MB-231; assay: normalised viability (% of control), CellTiter-Blue; higher = more viable cells (about 100 = DMSO control); settings: incubation time: 72 h
# Method in brief: (§2)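 Vehicle (100) and a positive kill control (0) anchored the normalisation of each plate, and Z'-factor was used for quality control. Breast cancer cell lines in 20 µl suspension were incubated 72 h over compound in 5 µl medium in 384-well plates, followed by CellTiter-Blue at 560/590 nm. The value is normalised viability at a single listed concentration of the series.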
# [13] = test system: MDA-MB-468; assay: as above; settings: incubation time: 72 h
# Method in brief: as §2
# [14] = test system: BT-549; assay: as above; settings: incubation time: 72 h
# Method in brief: as §2
# [15] = test system: DU-4475; settings: 72 h
# Method in brief: (§3)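 For viability and cell death testing, 384-well plates carried compound at 5 concentrations in 10-fold steps over a compound-specific 10,000-fold range, and breast cancer cell lines were seeded in 20 µl suspension. After 72 h incubation, cell death was read by CellTox Green fluorescence (485/520 nm) before viability was read by CellTiter-Glo luminescence. EC50 was fitted from the dose-response curves and censored at the top concentration. Normalisation on each plate was to 0.1 % DMSO and a positive kill control.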
# [16] = test system: HCC1143; settings: 72 h; remark: listed apart in the source
# Method in brief: as §3
# [17] = test system: HDQ-P1; settings: 72 h
# Method in brief: as §3
# [18] = test system: MDA-MB-231; settings: 72 h; remark: listed apart in the source
# Method in brief: as §3
# [19] = test system: Hs578T; settings: 72 h; remark: listed apart in the source
# Method in brief: as §3
# [20] = test system: HCC1937; settings: 72 h; remark: listed apart in the source
# Method in brief: as §3
# [21] = test system: CAL-51; settings: 72 h
# Method in brief: as §3
# [22] = test system: BT-474; settings: 72 h
# Method in brief: as §3
# [23] = test system: MDA-MB-436; settings: 72 h; remark: listed apart in the source
# Method in brief: as §3
# [24] = test system: MDA-MB-468; settings: 72 h; remark: listed apart in the source
# Method in brief: as §3
# [25] = test system: HCC1599; settings: 72 h; remark: listed apart in the source
# Method in brief: as §3
# [26] = test system: MDA-MB-453; settings: 72 h
# Method in brief: as §3
# [27] = test system: CAL-120; settings: 72 h; remark: listed apart in the source
# Method in brief: as §3
# [28] = test system: MCF-10A; settings: 72 h
# Method in brief: as §3
# [29] = test system: CAL-148; settings: 72 h
# Method in brief: as §3
# [30] = test system: SK-BR-3; settings: 72 h; remark: listed apart in the source
# Method in brief: as §3
# [31] = test system: CAL-85-1; settings: 72 h
# Method in brief: as §3
# [32] = test system: MFM-223; settings: 72 h; remark: listed apart in the source
# Method in brief: as §3
SMILES,"EC50, CellTiter-Blue viability [1] [nM]","EC50, CellTiter-Blue viability [2] [nM]","EC50, CellTiter-Glo [15] [nM]","EC50, CellTiter-Glo [16] [nM]","EC50, CellTiter-Glo [17] [nM]","EC50, CellTiter-Glo [18] [nM]","EC50, CellTiter-Glo [19] [nM]","EC50, CellTiter-Glo [20] [nM]","EC50, CellTiter-Glo [21] [nM]","EC50, CellTiter-Glo [22] [nM]","EC50, CellTiter-Glo [23] [nM]","EC50, CellTiter-Glo [24] [nM]","EC50, CellTiter-Glo [25] [nM]","EC50, CellTiter-Glo [26] [nM]","EC50, CellTiter-Glo [27] [nM]","EC50, CellTiter-Glo [28] [nM]","EC50, CellTiter-Glo [29] [nM]","EC50, CellTiter-Glo [30] [nM]","EC50, CellTiter-Glo [31] [nM]","EC50, CellTiter-Glo [32] [nM]",further results
COc1c(C)cnc(Cn2cnc3c(Cl)nc(N)nc32)c1C [BIIB021],64,177,329,416,242,483,756,157,227,421,141,370,190,153,247,354,199,13.7,308,192,"EC50, CellTiter-Blue viability [3]: 47 nM; EC50, CellTiter-Blue viability [4]: 87.1 nM; EC50, CellTiter-Blue viability [5]: 429 nM; EC50, CellTiter-Blue viability [6]: 353 nM; EC50, CellTiter-Blue viability [7]: 721 nM; EC50, CellTiter-Blue viability [8]: 44.8 nM; EC50, CellTiter-Blue viability [9]: 26.9 nM; EC50, CellTiter-Blue viability [10]: 28 nM; EC50, CellTiter-Blue viability [11]: 57.7 nM; normalised viability ([12]; 10 nM): 86.1%; normalised viability ([12]; 1000 nM): 34.1%; normalised viability ([12]; 10000 nM): 23.8%; normalised viability ([13]; 10 nM): 93.5%; normalised viability ([13]; 1000 nM): 43.2%; normalised viability ([13]; 10000 nM): 21.3%; normalised viability ([14]; 10 nM): 87.8%; normalised viability ([14]; 1000 nM): 36.5%; normalised viability ([14]; 10000 nM): 31.1%"
COc1ncc(-c2ccc3nccc(-c4ccnnc4)c3c2)cc1NS(=O)(=O)c1ccc(F)cc1F,19.8,33.5,228,32.5,14.2,56.6,37.6,130,34.7,19.8,23.8,43,13.9,14.8,27.6,12.9,76.8,6.82,15.8,16.2,"EC50, CellTiter-Blue viability [3]: 36.6 nM; EC50, CellTiter-Blue viability [4]: 27.9 nM; EC50, CellTiter-Blue viability [5]: 26.4 nM; EC50, CellTiter-Blue viability [6]: 49.8 nM; EC50, CellTiter-Blue viability [7]: 7.37 nM; EC50, CellTiter-Blue viability [8]: 45.1 nM; EC50, CellTiter-Blue viability [9]: 20.1 nM; EC50, CellTiter-Blue viability [10]: 3.24 nM; EC50, CellTiter-Blue viability [11]: 8.62 nM; normalised viability ([12]; 1 nM): 96.2%; normalised viability ([12]; 100 nM): 41.2%; normalised viability ([12]; 1000 nM): 23.7%; normalised viability ([13]; 1 nM): 92.9%; normalised viability ([13]; 100 nM): 34.3%; normalised viability ([13]; 1000 nM): 7.54%; normalised viability ([14]; 1 nM): 88%; normalised viability ([14]; 100 nM): 29.4%; normalised viability ([14]; 1000 nM): 14.7%"
FC(F)c1nc2ccccc2n1-c1nc(N2CCOCC2)nc(N2CCOCC2)n1 [ZSTK474],,,6590,1130,436,720,493,2730,1010,3040,498,677,538,492,958,540,1260,206,779,737,
